Experimental data published in patent publication US8791162B2, “Cathepsin cysteine protease inhibitors” (Merck Sharp & Dohme Corp., priority 2011, dated 2014).

Experiments:
[1] = Rhesus IV Pharmacokinetics; type: in vivo, rhesus monkeys; details: for % AUC Extrap. / AUC(0-inf) / C0 / AUC / clearance / Vd / half-life: male rhesus monkeys; for concentration at 0.5 h: 0.50 hours; for AUC: read-out: AUC(0-x); for clearance: read-out: Cl (plasma clearance); for Vd: read-out: Vdss; for half-life: read-out: t½ (converted)
Procedure: The study was conducted in male rhesus monkeys (n=4) via the intravenous route using a deuteriated (D6-Odanacatib, or D6-ODN) and non-deuteriated (D0-Odanacatib, or D0-ODN) forms of odanacatib. The dosing solution was prepared in DMSO at a concentration of 7.5 mg/mL and the dose volume was 0.1 mL/kg. Each monkey was administered a 0.75 mg/kg dose each of D6-ODN and D0-ODN as a mixture. Animals were fasted overnight prior to dosing. The dose was administered via the saphenous vein. […] Plasma was stored at −70° C. until analysis.
The lower limit of quantitation was 0.48 nM.
Pharmacokinetic parameters were obtained using non-compartmental methods (Watson®). The plasma clearance (CLP) was calculated as the IV dose divided by the area under the plasma concentration versus time curve (AUC0-∞). AUC was determined using logarithmic trapezoidal interpolation.

human Cat K = biological target: T1, human Cat K (Homo sapiens, UniProt P43235); details: human Cat K vs other human cathepsins; cited from earlier work
T1 sequence (P43235 115-329): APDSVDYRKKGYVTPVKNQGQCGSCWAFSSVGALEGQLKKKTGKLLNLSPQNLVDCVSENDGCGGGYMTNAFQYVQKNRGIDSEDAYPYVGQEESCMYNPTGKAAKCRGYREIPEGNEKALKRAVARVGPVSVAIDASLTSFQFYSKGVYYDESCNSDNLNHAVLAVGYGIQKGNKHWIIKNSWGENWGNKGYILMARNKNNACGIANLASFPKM

[2] = rhesus monkey, in vivo, po, 2.5 mg/kg
Procedure: The pharmacokinetic evaluation was carried out following oral administration to monkeys of the following ODN forms and formulations: D6-ODN spray-dried formulation (A), D6-ODN conventional formulation (B), D0-ODN spray-dried formulation (C) and D0-ODN conventional formulation (D).
The deuterated analog of odanacatib (D6-ODN) as well as ODN (D0-ODN) were prepared either as spray-dried or conventional (crystalline) formulations for pharmacokinetic study in monkeys. The spray-dried form was suspended in water, while the crystalline drug was dissolved in Imwitor:Tween for oral administration to monkeys. Spray-dried D6-ODN (A), crystalline D6-ODN (B), spray-dried D0-ODN (C) and crystalline D0-ODN (D) were dosed to monkeys (n=4) in a cross-over fashion. Each monkey was administered a ˜2.5 mg/kg dose each of forms B and D as a mixture in period one, and forms C and A were then dosed after a washout period. […]
The concentrations of D6-ODN and D0-ODN in plasma were determined by LC-MS/MS in the positive ion mode using the Turbo Ion Spray interface. […] Quantification was based on selected reaction monitoring of the following precursor/product ion pairs: m/z 526.3→313.0 (D0-ODN); m/z 532.2→313.2 (D6-ODN); m/z 538.3→325.2 (^13C12-ODN). The lower limit of quantitation was 1.9 nM. […]

[3] = rhesus monkey, plasma, male rhesus monkeys n=4, 0.75 mg/kg IV
[4] = rhesus monkey, plasma, 0.75 mg/kg IV

CC(C)(F)C[C@H](N[C@@H](c1ccc(-c2ccc(S(C)(=O)=O)cc2)cc1)C(F)(F)F)C(=O)NC1(C#N)CC1 [Example D0-ODN, N^1-(1-cyanocyclopropyl)-4-fluoro-N^2-{(1S)-2,2,2-trifluoro-1-[4′-(methylsulfonyl)-1,1′-biphenyl-4-yl]ethyl}-L-leucinamide, reference compound]
% AUC Extrap. ([1]; 0.75 mg/kg IV): 0.25% | concentration at 0.08 h [1, 3]: 1020 nM | concentration at 0.25 h [1, 3]: 947 nM | concentration at 0.5 h [1, 3]: 872 nM | concentration at 1 h [1, 3]: 854 nM | concentration at 4 h [1, 3]: 462 nM | concentration at 8 h [1, 3]: 250 nM | concentration at 12 h [1, 3]: 130 nM | concentration at 24 h [1, 3]: 14.5 nM | concentration at 30 h [1, 3]: 6.22 nM | concentration at 48 h [1, 3]: 1.22 nM | AUC(0-inf) [1, 4]: 5.73 µM·h | C0 [1, 4]: 1080 nM | AUC [1, 4]: 5.71 µM·h | clearance [1, 4]: 4.6 mL/min/kg | Vd [1, 4]: 1.9 L/kg | half-life [1, 4]: 3.7 h | selectivity against all other known human cathepsins (human Cat K): ≥ 300 fold

[2H]C([2H])([2H])C(F)(C[C@H](N[C@@H](c1ccc(-c2ccc(S(C)(=O)=O)cc2)cc1)C(F)(F)F)C(=O)NC1(C#N)CC1)C([2H])([2H])[2H] [Example D6-ODN, (2S)—N-(1-cyanocyclopropyl)-5,5,5-trideuterio-4-fluoro-4-(trideuteriomethyl)-2-[[(1S)-2,2,2-trifluoro-1-[4-(4-methylsulfonylphenyl)phenyl]ethyl]amino]pentanamide]
% AUC Extrap. ([1]; 0.75 mg/kg IV): 1.7% | concentration at 0.08 h [1, 3]: 894 nM | concentration at 0.25 h [1, 3]: 839 nM | concentration at 0.5 h [1, 3]: 793 nM | concentration at 1 h [1, 3]: 831 nM | concentration at 4 h [1, 3]: 633 nM | concentration at 8 h [1, 3]: 633 nM | concentration at 12 h [1, 3]: 515 nM | concentration at 24 h [1, 3]: 273 nM | concentration at 30 h [1, 3]: 208 nM | concentration at 48 h [1, 3]: 70.7 nM | concentration at 72 h ([1]; rhesus monkey, plasma, male rhesus monkeys n=4, 0.75 mg/kg IV, 72.00 hours): 28.4 nM | concentration at 96 h ([1]; rhesus monkey, plasma, male rhesus monkeys n=4, 0.75 mg/kg IV, 96.00 hours): 13.8 nM | AUC(0-inf) [1, 4]: 18 µM·h | C0 [1, 4]: 933 nM | AUC [1, 4]: 17.7 µM·h | clearance [1, 4]: 1.4 mL/min/kg | Vd [1, 4]: 1.7 L/kg | half-life [1, 4]: 16 h | higher exposure compared to D0-ODN ([1]; rhesus monkeys, 0.75 mg/kg IV): 3 fold | longer half-life compared to D0-ODN ([1]; rhesus monkeys, 0.75 mg/kg IV): 4 fold | lower clearance compared to D0-ODN ([1]; rhesus monkeys, 0.75 mg/kg IV): 3 fold | increase in plasma elimination half-life of ODN by deuterium substitution [2]: about 2.5 fold
